The source of these data is patent US20040115614A1, “Electrophysiology assay methods” (priority 2002, published 2004).

Values joined by “and” are separate entries in the source; they are usually repeats but may differ in a detail not shown here. Equal values may be shown once. Read-outs that look alike come from different tables or passages of the source.

Series [1] has as its system voltage-gated sodium channels. The class given is cell-based, human.
The test system of series [2] is Na^+ channels. The class given is cell-based, human. The conditions noted are these: read-out: Tetrodotoxin IC50.
The procedure of series [3]:
The amplitude and rate of the observed depolarization was reduced by the removal of extracellular Na^+ concentration. […] This reduction effect was more pronounced in the absence of extracellular Na^+ and in cells that were not pre-incubated with the compound.

Turning to `Clc1ccccc1C(c1ccccc1)(c1ccccc1)n1ccnc1` [Clotrimazole], the “Rate (% change/ s)” value in series [1] (1 μM, 30 min pre-incubation, 8 V train of 750 μs pulses, 8 pulses per s for 3 s) stood at 0.124 ± 0.024 % change/ s. In addition, the “Amplitude (% max)” value in series [1] (1 μM, 30 min pre-incubation, 8 V train, % of maximal depolarization with 50 mM KCl) was 33.92 ± 0.320 % max.
The term IC50 denotes the concentration needed to halve the response being measured. For the compound `NC1=N[C@H](O)[C@H]2[C@H]3O[C@]4(O)O[C@@H]([C@@H](O)[C@@]2(N1)[C@@H]4O)[C@]3(O)CO` [TTX, tetrodotoxin], in series [1], the “Amplitude (% max)” value came out at 24.260 ± 0.290 % max, the “Rate (% change/ s)” value turned out to be 0.001 ± 0.001 % change/ s, the “effect on voltage-induced depolarizations” value is reported as “blocked the depolarizations in a dose-dependent manner” and the “voltage-induced changes in plasma membrane potential” value was “completely abolished”. Also, in series [1] (read-out: IC50 for block of voltage-induced depolarizations), the IC50 is around 9 nM. The IC50 in series [2] is 9.5 nM and 6.69 nM.
Turning to `COc1ccc(CCN(C)CCCC(C#N)(c2ccc(OC)c(OC)c2)C(C)C)cc1OC` (stereo not shown) [Verapamil], in series [1], the “Amplitude (% max)” value was found to be 32.84 ± 0.330 % max and the “Rate (% change/ s)” value stood at 0.141 ± 0.014 % change/ s.
In the case of `COc1cc(N)c(Cl)cc1C(=O)NC1CCN(CCCOc2ccc(F)cc2)CC1OC` (stereo not shown) [cisapride], in series [3], the “KCl-induced plasma membrane depolarization” value is “reduced”.
In the case of Charybdotoxin, the “Rate (% change/ s)” value in series [1] (100 nM, 30 min pre-incubation, 8 V train of 750 μs pulses, 8 pulses per s for 3 s) is given as 0.115 ± 0.013 % change/ s. Also, the “Amplitude (% max)” value in series [1] (100 nM, 30 min pre-incubation, 8 V train, % of maximal depolarization with 50 mM KCl) is 34.09 ± 0.326 % max.
